Among the data in patent US10059741B2 (priority 2015, dated 2018) are EC50, CC50 and EC90 values, retold here.

What is called pEC50 is the negative decadic logarithm of the EC50, by convention in mol/L. What is called EC90 is the concentration at which the effect reaches the 90% level. A low value points to an effect from little substance.

Molecules are shown by their SMILES. pEC50: −log10 of the molar value. Where two headings read alike, the source gives them in different places. Bridge positions count the residues as written; N and C are the ends. Square brackets hold non-standard residues; d marks the D form. Peptide text beside a SMILES is read from it. R8 = C=CCCCCCC[C@@](C)(N)C(=O)O; S5 = C=CCCC[C@](C)(N)C(=O)O; Nle = CCCC[C@H](N)C(=O)O; Aib = CC(C)(N)C(=O)O Some results are limits rather than exact numbers.

Data set [1] relates to H3N2 Perth/16/2009. Briefly: microbe, parasite or virus in culture. The data set is classed as cell-based, influenza A virus. As to conditions: for EC50: read-out: EC50 (μM) H3N2 Perth/16/2009; for pEC50: Influenza A H3N2 Perth/16/2006 (so in the source), Drug Assay Visual, read-out: EC50.
Data set [2] concerns H5N1 A/Hong Kong/213/2003. Briefly: microbe, parasite or virus in culture. The note with it: read-out: EC50. The data set is classed as cell-based, influenza A virus.
Data set [3] in a line: in vitro. The note with it: dog.
The test system of data set [4] is H7N9 A/Anhui/1/2013. The experiment in a line: microbe, parasite or virus in culture. Format: cell-based, influenza A virus. As to conditions: read-out: EC50.
Data set [5] relates to influenza virus, various viral strains. The experiment in a line: organism not typed. As to conditions: Influenza A H1N1 A/Solomon Is./3/2006-M; Drug Assay Visual; read-out: EC50. Format: cell-based.
In data set [6] the test system is H1N1 A/Solomon Island/03/2006. The data set is classed as cell-based, influenza A virus. The note with it: Influenza A H1N1 A/Solomon Is./3/2006-M; Drug Assay Neutral Red; read-out: EC50.
The test system of data set [7] is H3N2 Perth/16/2009. The experiment in a line: microbe, parasite or virus in culture. Format: cell-based, influenza A virus. As to conditions: for EC50: read-out: EC50 (μM) H3N2 Perth/16/2009; for pEC50: Drug Assay Neutral Red, read-out: EC50.
In data set [8] the test system is H1N1 California/07/2009. The experiment in a line: microbe, parasite or virus in culture. As to conditions: for EC50: read-out: EC50 (μM) H1N1 California/07/2009; for pEC50: read-out: EC50. Format: cell-based, influenza A virus.
For data set [9], the system named is H1N1 California/07/2009. Briefly: microbe, parasite or virus in culture. The data set is classed as cell-based, influenza A virus. The note with it: for EC50: read-out: EC50 (μM) H1N1 California/07/2009; for pEC50: read-out: EC50. This is another data set of the same source.
The mark [10] stands for this setting: Cytopathic effect/toxicity (Visual), MDCK cells.
Setting [11] is: CC50 (μM) H1N1 California/07/2009, Cell cytotoxicity (CC), run with H1N1 California/07/2009.
[12] abbreviates: CC50 (μM) H3N2 Perth/16/2009, Cell cytotoxicity (CC), run with H3N2 Perth/16/2009.
Setting [13] is: CC50, run with Influenza A H1N1 California/07/2009, Neutral Red.
[14] abbreviates: CC50, run with Influenza A H1N1 California/07/2009, Visual.
Where [15] appears, read: CC50, run with Influenza A H3N2 Perth/16/2006 (so in the source), Neutral Red.
Where [16] appears, read: CC50, run with Influenza A H3N2 Perth/16/2006 (so in the source), Visual.
Where [17] appears, read: Cytopathic effect/toxicity (Neutral red), MDCK cells.
The mark [18] stands for this setting: Influenza A H3N2 Perth/16/2006 (so in the source).
Setting [19] is: Influenza A H1N1 California/07/2009, Drug Assay Visual.
[20] abbreviates: Influenza A H1N1 California/07/2009, Drug Assay Neutral Red.
[21] abbreviates: CC50, MDCK cells, run with Influenza A H1N1 California/07/2009, Neutral Red.
The mark [22] stands for this setting: CC50, MDCK cells, run with Influenza A H1N1 California/07/2009, Visual.

In the case of `CCCC[C@H](NC(C)=O)C(=O)N[C@@H](CC(=O)O)C(=O)N[C@H](C(=O)N[C@@H](CC(N)=O)C(=O)N[C@@]1(C)CCCC=CCCC[C@@](C)(C(=O)N[C@@H](CC(C)C)C(=O)N[C@@H](C)C(=O)N[C@H](C(=O)N[C@@H](CCC(N)=O)C(=O)NC(C)(C)C(=O)N[C@@H](C)C(=O)N[C@@H](C)C(=O)N[C@@H](C)C(N)=O)C(C)C)NC(=O)[C@H](CC(C)C)NC(=O)[C@H](CC(C)C)NC(=O)[C@H]([C@@H](C)O)NC1=O)C(C)C` [SP-21] (Ac-[Nle]DVN[S5]TLL[S5]LAVQ[Aib]AAA-NH2; staple 5-9), the EC50 in [1] (setting [10]) is under 1.5 µM; in data set [7] (setting [17]), 1.5 to 10 µM; in data set [8] (setting [10]), under 1.5 µM; in data set [9] (setting [17]) it was 1.5 to 10 µM. For the same compound, the pEC50 is 6.27 in [1]; 4.41 in data set [2]; 4.77 in [4]; 5.32 in data set [5]; 5.28 in data set [6]; 5.68 in [7] (setting [18]). Besides, the negative logarithm of the EC50 (pEC50) was 5.32 in data set [7] (Influenza A H3N2 Perth/16/2009, last run); 5.89 in data set [8] (setting [19]); 4.68 in [9] (Influenza A H1N1 California/07/20/09 (so in the source), later run, Drug Assay Neutral Red); 5.34 in data set [9] (setting [20]). Further, the CC50 in [3] (CC50) is over 50 µM; in data set [3] (setting [11]) it was over 100 µM; in [3] (setting [12]) it was over 100 µM; in data set [3] (CC50, run with Influenza A H1N1 A/Solomon Is./3/2006-M, Neutral Red), over 100 µM; in [3] (CC50, run with Influenza A H1N1 A/Solomon Is./3/2006-M, Visual) it was over 100 µM; in data set [3] (CC50, run with Influenza A H1N1 California/07/20/09 (so in the source), later run, Neutral Red), over 100 µM. Also, the CC50 was over 100 µM in data set [3] (CC50, run with Influenza A H1N1 California/07/20/09 (so in the source), Visual/Neutral Red); over 100 µM in data set [3] (setting [13]); over 100 µM in data set [3] (setting [14]); over 100 µM in [3] (setting [15]); over 100 µM in [3] (setting [16]); over 100 µM in data set [3] (CC50, run with Influenza A H3N2 Perth/16/2009, last run, Neutral Red). In data set [3] (CC50, run with Influenza A H3N2 Perth/16/2009, Visual/Neutral Red), this compound yielded a CC50 of over 100 µM. Further, the concentration for an effect of 90% (EC90) in data set [7] (Influenza A H3N2 Perth/16/2009, Drug Assay Visual/Neutral Red) was found to be 8 µM; in data set [9] (Influenza A H1N1 California/07/20/09 (so in the source), Drug Assay Visual/Neutral Red) it was 9.6 µM.
`CC(=O)N[C@@H](Cc1ccccc1)C(=O)N[C@@H](CC(=O)O)C(=O)N[C@H](C(=O)N[C@@H](CC(N)=O)C(=O)N[C@@]1(C)CCCC=CCCC[C@@](C)(C(=O)N[C@@H](CC(C)C)C(=O)N[C@@H](CCCCN)C(=O)N[C@H](C(=O)NC(C)(C)C(=O)N[C@@H](C)C(=O)N[C@@H](CCC(N)=O)C(N)=O)C(C)C)NC(=O)[C@H](CC(C)C)NC(=O)[C@H](CC(C)C)NC(=O)[C@H]([C@@H](C)O)NC1=O)C(C)C` [SP-4] (Ac-FDVN[S5]TLL[S5]LKV[Aib]AQ-NH2; staple 5-9): the EC50 in [1] was 25 to 50 µM; in data set [7], 25 to 50 µM; in [8], over 50 µM; in data set [9], over 50 µM. Also, the CC50 in data set [3] (setting [11]), in data set [3] (setting [12]), in data set [3] (setting [21]) and in [3] (setting [22]) was over 100 µM each time.
`CCCC[C@H](NC(C)=O)C(=O)N[C@@H](CC(=O)O)C(=O)N[C@H](C(=O)N[C@@H](CC(N)=O)C(=O)N[C@@]1(C)CCCC=CCCC[C@@](C)(C(=O)N[C@@H](CC(C)C)C(=O)N[C@@H](C)C(=O)N[C@H](C(=O)N[C@@H](CCC(N)=O)C(=O)NC(C)(C)C(=O)N[C@@H](CCC(N)=O)C(=O)N[C@@H](C)C(=O)N[C@@H](C)C(N)=O)C(C)C)NC(=O)[C@H](CC(C)C)NC(=O)[C@H](CC(C)C)NC(=O)[C@H]([C@@H](C)O)NC1=O)C(C)C` [SP-19] (Ac-[Nle]DVN[S5]TLL[S5]LAVQ[Aib]QAA-NH2; staple 5-9): the EC50 in [1], in data set [7], in data set [8] and in data set [9] was 1.5 to 10 µM throughout. For the same compound, the CC50 in [3] (setting [11]), in data set [3] (setting [12]), in data set [3] (setting [13]), in data set [3] (setting [14]), in [3] (setting [15]) and in data set [3] (setting [16]) was over 100 µM each time.
Regarding `CCCC[C@H](NC(C)=O)C(=O)N[C@@H](CC(=O)O)C(=O)N[C@H](C(=O)N[C@@H](CC(N)=O)C(=O)N[C@]1(C)CCCCCCC=CCCC[C@@](C)(C(=O)N[C@@H](CCC(N)=O)C(=O)N[C@@H](C)C(=O)N[C@@H](CCC(N)=O)C(=O)N[C@@H](C)C(=O)N[C@@H](C)C(N)=O)NC(=O)[C@H](C)NC(=O)[C@H](CC(C)C)NC(=O)[C@H](Cc2ccccc2)NC(=O)[C@H](CC(C)C)NC(=O)[C@H](CC(C)C)NC(=O)[C@H]([C@@H](C)O)NC1=O)C(C)C` [SP-26] (Ac-[Nle]DVN[R8]TLLFLA[S5]QAQAA-NH2; staple 5-12), the EC50 was 10 to 25 µM in [1] (setting [10]), 10 to 25 µM in data set [7] (setting [17]), under 1.5 µM in data set [8] (setting [10]) and 1.5 to 10 µM in data set [9] (setting [17]). In addition, the pEC50 was 4.85 in [1], 4.64 in data set [7] (setting [18]), 6.12 in data set [8] (setting [19]) and 5.68 in data set [9] (setting [20]). The CC50 in data set [3] (setting [11]), in data set [3] (setting [12]), in data set [3] (setting [13]), in [3] (setting [14]), in data set [3] (setting [15]) and in data set [3] (setting [16]) was over 100 µM throughout.
With `CCCC[C@H](NC(C)=O)C(=O)N[C@@H](CC(=O)O)C(=O)N[C@H](C(=O)N[C@@H](CC(N)=O)C(=O)N[C@@]1(C)CCCC=CCCC[C@@](C)(C(=O)N[C@@H](CC(C)C)C(=O)N[C@@H](C)C(=O)N[C@H](C(=O)N[C@@H](CCC(N)=O)C(=O)N[C@@H](C)C(=O)NC(C)(C)C(=O)N[C@@H](C)C(=O)N[C@@H](C)C(N)=O)C(C)C)NC(=O)[C@H](CC(C)C)NC(=O)[C@H](CC(C)C)NC(=O)[C@H]([C@@H](C)O)NC1=O)C(C)C` [SP-23] (Ac-[Nle]DVN[S5]TLL[S5]LAVQA[Aib]AA-NH2; staple 5-9), the EC50 in data set [1], in data set [7], in [8] and in [9] was 1.5 to 10 µM each time. Moreover, the CC50 in data set [3] (setting [11]), in data set [3] (setting [12]), in data set [3] (setting [13]), in [3] (setting [14]), in data set [3] (setting [15]) and in data set [3] (setting [16]) was over 100 µM throughout. Moreover, the pEC50 in data set [8] was 5.37; in data set [9], 5.38.
With `CCCC[C@H](NC(C)=O)C(=O)N[C@@H](CC(=O)O)C(=O)N[C@H](C(=O)N[C@@H](CC(N)=O)C(=O)N[C@@]1(C)CCCC=CCCC[C@@](C)(C(=O)N[C@@H](CC(C)C)C(=O)N[C@@H](C)C(=O)N[C@H](C(=O)NC(C)(C)C(=O)N[C@@H](C)C(=O)N[C@@H](CCC(N)=O)C(=O)N[C@@H](C)C(=O)N[C@H](C)C(N)=O)C(C)C)NC(=O)[C@H](CC(C)C)NC(=O)[C@H](CC(C)C)NC(=O)[C@H]([C@@H](C)O)NC1=O)C(C)C` [SP-16] (Ac-[Nle]DVN[S5]TLL[S5]LAV[Aib]AQA[dA]-NH2; staple 5-9), the EC50 fell in the range of 25 to 50 µM in data set [1], 25 to 50 µM in data set [7], 10 to 25 µM in [8] and 10 to 25 µM in [9]. Moreover, the CC50 in [3] (setting [11]), in data set [3] (setting [12]), in data set [3] (setting [21]) and in [3] (setting [22]) was over 100 µM throughout.
Take `CCCC[C@H](NC(C)=O)C(=O)N[C@@H](CC(=O)O)C(=O)N[C@H](C(=O)N[C@@H](CC(N)=O)C(=O)N[C@@]1(C)CCCC=CCCC[C@@](C)(C(=O)N[C@@H](CC(C)C)C(=O)N[C@@H](C)C(=O)N[C@H](C(=O)NC(C)(C)C(=O)N[C@@H](C)C(=O)N[C@@H](CCC(N)=O)C(=O)N[C@@H](C)C(=O)N[C@@H](C)C(N)=O)C(C)C)NC(=O)[C@H](CC(C)C)NC(=O)[C@H](CC(C)C)NC(=O)[C@H]([C@@H](C)O)NC1=O)C(C)C` [SP-7] (Ac-[Nle]DVN[S5]TLL[S5]LAV[Aib]AQAA-NH2; staple 5-9): the EC50 in data set [1] lay in the range of 25 to 50 µM; in [7] it was 25 to 50 µM; in data set [8] it was 10 to 25 µM; in [9] it was 10 to 25 µM. Besides, the CC50 in data set [3] (setting [11]), in data set [3] (setting [12]), in data set [3] (setting [21]) and in data set [3] (setting [22]) was over 100 µM in each case.
